Among the test systems are A498; A549; CAKI-1; HCT-15; HOP-92; K562; MOLT-4; Malme-3M; NCI-H23; RXF 393; SF-539; SK-MEL-28; SK-MEL-2; SK-MEL-5; SK-OV-3; SNB-19; SNB-75; SNB-78; MCF7; NCI/ADR-RES.
Holding throughout (test): NCI tumour cell line growth inhibition, 48 h

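Where inhibition never reached the appropriate level, the endpoint shown equals the highest concentration tested. Otherwise, values were interpolated linearly from a five-concentration, 48-hour dose response in 96-well plates. Abbreviation: GI50, concentration required for 50% inhibition of growth.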 The source made the active and inactive calls. Cut-off read from the data, not from the text of the source: active = GI50 up to about 1.1 µM and inactive = higher. Bounds are passed on as bounds.

On to `N#C/C(=C\c1ccc(O)c(O)c1)C(=O)NC1CCC(CC2CCC(NC(=O)/C(C#N)=C/c3ccc(O)c(O)c3)CC2)CC1` (centres undefined), for which the GI50 with A498 is 4.7 µM (inactive); in the assay with A549 it was 0.466 µM (active); in the assay with CAKI-1, 2.04 µM (inactive); in the assay on HCT-15 it was 0.461 µM; in the assay with HOP-92, 1.55 µM (inactive); in the assay on K562, 0.564 µM (active). Also, the GI50 with MOLT-4 is 0.743 µM (active); with Malme-3M it was 3.65 µM (inactive); in the assay with NCI-H23, 1.3 µM (inactive); with RXF 393, 2.29 µM (inactive); with SF-539 it was 0.536 µM (active); in the assay on SK-MEL-28 it was 3.22 µM (inactive). The GI50 with SK-MEL-2 is 2 µM (inactive); in the assay with SK-MEL-5 it was 1.93 µM (inactive); in the assay on SK-OV-3, 3.82 µM (inactive); in the assay with SNB-19 it was 3.52 µM (inactive); with SNB-75 it was 0.263 µM (active); in the assay on SNB-78, 1.59 µM (inactive).

Regarding `Cc1c(/C=N/N=C/c2[nH]c(C(=O)OC(C)(C)C)c(C)c2C)[nH]c(C(=O)OC(C)(C)C)c1C`, the GI50 is > 100 µM (inactive) in the assay on A498; > 100 µM (inactive) in the assay on A549; > 100 µM (inactive) with CAKI-1; more than 100 µM with HCT-15; 67.8 µM (inactive) in the assay with HOP-92; 59.4 µM (inactive) with K562. The GI50 in the assay with MOLT-4, in the assay with Malme-3M, with NCI-H23, in the assay on RXF 393, in the assay with SF-539 and in the assay with SK-MEL-2 was > 100 µM (inactive) each time. In addition, the GI50 is > 100 µM (inactive) in the assay on SK-MEL-5; > 100 µM (inactive) in the assay with SK-OV-3; > 100 µM (inactive) in the assay on SNB-19; 33 µM (inactive) in the assay on SNB-75; > 100 µM (inactive) with SNB-78.

Take `CC[C@]12C=CCN3CCC4(c5cc([C@@]6(C(=O)OC)CC7CN(CCc8c6[nH]c6ccccc86)CC6CCCCC67)c(OC)cc5N(C)C4[C@](O)(C(=O)OC)C1OC(C)=O)[C@@H]32` (some centres undefined): the GI50 was < 0.015 µM (active) in the assay with A498; < 0.01 µM (active) in the assay with A549; < 0.0252 µM (active) in the assay with CAKI-1; 0.111 µM with HCT-15; < 0.01 µM (active) in the assay on HOP-92; < 0.01 µM (active) in the assay on K562. Besides, the GI50 in the assay with MCF7 was < 0.01 µM (active); in the assay with MOLT-4, < 0.01 µM (active); in the assay with Malme-3M, < 0.01 µM (active); in the assay with NCI-H23, < 0.01 µM (active); in the assay with NCI/ADR-RES, 0.186 µM (active); in the assay on RXF 393, < 0.01 µM (active). In addition, the GI50 in the assay on SF-539, with SK-MEL-2, in the assay with SK-MEL-5, in the assay with SK-OV-3, with SNB-19 and with SNB-75 was < 0.01 µM (active) throughout. Moreover, the GI50 with SNB-78 was < 0.01 µM (active).

`O=Cc1ccc(-c2cccs2)s1`: the GI50 is 2.46 µM (inactive) in the assay on A498; 60 µM (inactive) with A549; 13.8 µM (inactive) in the assay with CAKI-1; more than 100 µM in the assay with HCT-15; 55.6 µM (inactive) with HOP-92; 34.3 µM (inactive) with K562. For the same compound, the GI50 with MCF7 is 1.16 µM (inactive); in the assay with MOLT-4 it was > 95.1 µM (inactive); with Malme-3M, > 100 µM (inactive); in the assay with NCI-H23, > 68.1 µM (inactive); in the assay with NCI/ADR-RES, 42.2 µM (inactive); in the assay on RXF 393, 18.4 µM (inactive). Besides, the GI50 was > 100 µM (inactive) in the assay with SF-539; > 100 µM (inactive) with SK-MEL-28; > 100 µM (inactive) with SK-MEL-2; 58.1 µM (inactive) in the assay with SK-MEL-5; > 100 µM (inactive) with SK-OV-3; > 100 µM (inactive) in the assay with SNB-19. The results for the GI50 with SNB-75 and with SNB-78 were 76 µM (inactive) and > 100 µM (inactive), respectively.
